Results published in paper PMC10539329, “NLRP6 potentiates PI3K/AKT signalling by promoting autophagic degradation of p85α to drive tumorigenesis” (Nature Communications, 2023).

Tests used:
[1] = test system: bovine serum albumin (BSA); experiment: ELISA, binding of HRP-conjugated peptide to BSA (control); conditions: HRP-conjugated peptide on BSA, 1 h, absorbance 450 nm
Description: (§1) The 96-well plate was coated with bovine serum albumin (BSA) or purified NLRP6. HRP-conjugated PepC or HRP-conjugated Pep9 was incubated with BSA or NLRP6 for 1 h, and the unbound peptide was washed away. The HRP substrate was added, and the absorbance was detected at 450 nm. For the competitive ELISA, the 96-well plate was coated with purified p85α. The binding of NLRP6 to p85α competed with 10 μM PepC or 5 μM, 10 μM, 20 μM Pep9 for 1 h.

[2] = test system: purified NLRP6; experiment: ELISA, binding of HRP-conjugated peptide to purified NLRP6; conditions: HRP-conjugated peptide on NLRP6, 1 h, absorbance 450 nm
Description: (§2) DNA encoding full-length NLRP6 was codon optimized and chemically synthesized by Genewiz (Soochow, China). The DNA sequence was subcloned into NdeI-XhoI sites of a pDB-His-MBP vector (kindly given by Pro. Chenggui Han, China Agricultural University, Beijing, China). Recombinant NLRP6 protein was expressed and purified following previous reports, with slight modifications. Briefly, the protein was expressed in E. coli (DE3) at 16 °C with 0.5 mM IPTG induction overnight. Then, the protein was purified by Ni affinity and gel filtration chromatography. The p85α WT and p85α mutant sequences were chemically synthesized and subcloned into BamHI-XhoI sites of a pGEX-6P-1 plasmid by GenScript (Nanjing, China). The E. coli (DE3) transformed with the plasmids were grown in LB medium at 37 °C. The culture medium was supplemented with 0.5 mM IPTG followed by incubation at 16 °C for 16–18 h. The proteins were purified by glutathione-affinity chromatography (Smart-Life Sciences, Changzhou, China) followed by gel filtration chromatography (Cytiva, MA, USA) using PBS. The protein extinction coefficient was calculated by ProtParam, and the protein concentration was determined by the ultraviolet spectrophotometry method.
as §1

[3] = test system: LN229 cells; experiment: Cell proliferation / viability assay, LN229; format: cell-based, Human; conditions: TAT-peptide
Description: (§3) Cells were seeded into 12-well plates at a density of 1 × 10^4 cells per well. Manual cell counting was carried out at the indicated times using trypan blue and a haemocytometer.
(§4) To determine the antitumour effect of the peptide in vitro, the peptide was incubated with cells for 24 h when the cells were grown to approximately 80% confluence. Cell viability was measured at the indicated time points. The cell lysates were collected for immunoprecipitation as described above. To determine the antitumour effect of the peptide in vivo, the peptide was stereotactically injected using identical coordinates of tumour implantation in 3 μl of PBS. Briefly, 3 weeks after intracranial tumour cell implantation, mice with similar tumour sizes and similar weights were selected and randomly arranged into five groups (n = 6): PBS, PepC (0.25 mg/kg TAT-PepC per injection), Pep9 low dose (Pep9 L, 0.05 mg/kg TAT-Pep9 per injection), Pep9 medium dose (Pep9 M, 0.1 mg/kg TAT-Pep9 per injection), and Pep9 high dose (Pep9 H, 0.25 mg/kg TAT-Pep9 per injection). Each mouse received intratumoural injection every 10 days (at Day 21, Day 31, Day 41, and Day 51), and tumour growth was monitored at Day 21, Day 41, and Day 56. The experiment was terminated at Day 80, and all the mice (if they were alive) were sacrificed as previously described.

[4] = test system: HS683 cells; experiment: Cell proliferation / viability assay, HS683; format: cell-based, Human; conditions: Supplementary Figure 8f
Description: as §3, §4

[5] = test system: p85α; experiment: IHC of p85α in tumour tissues from peptide-treated mice; format: in vivo, nude mice with human tumour cells; conditions: PepC
Description: In brief, the tissue sections were deparaffinized in xylene and 50–100% ethanol sequentially and then rehydrated in deionized water. The sections were immersed in Antigen Retrieval Solution in a pressure cooker and kept at 120 °C for 2.5 min. Endogenous peroxidase activity was blocked with peroxidase blocking reagent (3% hydrogen peroxide in water) for 15 min. The sections were incubated with primary antibodies in incubation buffer at 4 °C overnight. The sections were rinsed with wash buffer and incubated with secondary antibodies at room temperature for 1 h. Finally, the sections were immersed in DAB Chromogen Solution for suitable staining and counterstained with Haematoxylin QS for 3 min. The protein score was calculated by multiplying the percentage of positive cells (<10% = 0, 10–25% = 1, 25–50% = 2, 50–75% = 3, >75% = 4) by the intensity (negative = 0, weak staining = 1, moderate staining = 2, or strong staining = 3). The stained sections were evaluated by two independent pathologists who were blinded to the clinical characteristics.
as §4

[6] = test system: NLRP6/p85α interaction; experiment: Competitive ELISA, NLRP6 binding to p85α; format: biochemical; conditions: 10 μM peptide (PepC +, Pep9 ++), 1 h
Description: as §2, §1

Q: For “SAEGYQYRALYD [Pep1, peptide found on the p85α SH3 domain; selected as the control named PepC]”, which ELISA value ([1]; replicate 1) is on record?
A: 0.10

Q: What about the ELISA value ([1]; replicate 2) of the same sequence?
A: 0.15

Q: What about the ELISA value ([1]; replicate 3) of the same sequence?
A: 0.12

Q: And the ELISA value ([2]; replicate 1)?
A: 0.12

Q: What about the ELISA value ([2]; replicate 2) of the same sequence?
A: 0.10

Q: And the ELISA value ([2]; replicate 3)?
A: 0.06

Q: What about the Relative cell viability ([3]; concentration 5 (unit not given), replicate 1) of the same sequence?
A: 0.87

Q: What about the Relative cell viability ([3]; concentration 5 (unit not given), replicate 2) of the same sequence?
A: 0.87

Q: And the Relative cell viability ([3]; concentration 5 (unit not given), replicate 3)?
A: 0.99

Q: What about the Relative cell viability ([3]; concentration 10 (unit not given), replicate 1) of the same sequence?
A: 1.05

Q: And the Relative cell viability ([3]; concentration 10 (unit not given), replicate 2)?
A: 0.89

Q: What about the Relative cell viability ([3]; concentration 10 (unit not given), replicate 3) of the same sequence?
A: 0.97

Q: And the Relative cell viability ([3]; concentration 20 (unit not given), replicate 1)?
A: 0.94

Q: And the Relative cell viability ([3]; concentration 20 (unit not given), replicate 2)?
A: 0.96

Q: What about the Relative cell viability ([3]; concentration 20 (unit not given), replicate 3) of the same sequence?
A: 1.01

Q: What about the Relative cell viability ([3]; concentration 30 (unit not given), replicate 1) of the same sequence?
A: 0.95

Q: And the Relative cell viability ([3]; concentration 30 (unit not given), replicate 2)?
A: 0.96

Q: What about the Relative cell viability ([3]; concentration 30 (unit not given), replicate 3) of the same sequence?
A: 1.02

Q: What about the Relative cell viability ([4]; 5 μM, replicate 1) of the same sequence?
A: 0.98

Q: What about the Relative cell viability ([4]; 5 μM, replicate 2) of the same sequence?
A: 0.96

Q: What about the Relative cell viability ([4]; 5 μM, replicate 3) of the same sequence?
A: 0.94

Q: What about the Relative cell viability ([4]; 10 μM, replicate 1) of the same sequence?
A: 0.96

Q: And the Relative cell viability ([4]; 10 μM, replicate 2)?
A: 0.95

Q: And the Relative cell viability ([4]; 10 μM, replicate 3)?
A: 0.91

Q: What about the Relative cell viability ([4]; 20 μM, replicate 1) of the same sequence?
A: 0.94

Q: What about the Relative cell viability ([4]; 20 μM, replicate 2) of the same sequence?
A: 0.90

Q: What about the Relative cell viability ([4]; 20 μM, replicate 3) of the same sequence?
A: 0.89

Q: And the Relative cell viability ([4]; 30 μM, replicate 1)?
A: 0.92

Q: And the Relative cell viability ([4]; 30 μM, replicate 2)?
A: 0.88

Q: What about the Relative cell viability ([4]; 30 μM, replicate 3) of the same sequence?
A: 0.85

Q: What about the “score (Supplementary Figure 8k)” value ([5]; replicate 1) of the same sequence?
A: 2

Q: What about the “score (Supplementary Figure 8k)” value ([5]; replicate 2) of the same sequence?
A: 1

Q: And the “score (Supplementary Figure 8k)” value ([5]; replicate 3)?
A: 1

Q: What about the “score (Supplementary Figure 8k)” value ([5]; replicate 4) of the same sequence?
A: 3

Q: And the “score (Supplementary Figure 8k)” value ([5]; replicate 5)?
A: 1

Q: And the “ELISA value (NLRP6 binding to p85α)” value ([6]; replicate 1, no peptide 2.20)?
A: 1.90

Q: What about the “ELISA value (NLRP6 binding to p85α)” value ([6]; replicate 2, no peptide 2.10) of the same sequence?
A: 2.05

Q: And the “ELISA value (NLRP6 binding to p85α)” value ([6]; replicate 3, no peptide 2.45)?
A: 1.80
